How the values were obtained:
[1] = molecular target: T1, Recombinant human JAK3 catalytic domain (Homo sapiens, UniProt P52333); assay: JAK3 inhibition assay; format: biochemical; conditions: semi-quantitative score
T1 construct: Recombinant human JAK3 catalytic domain (amino acids 781-1124; catalog number PV3855); purchased Invitrogen PV3855
Protocol: Recombinant human JAK3 catalytic domain (amino acids 781-1124; catalog number PV3855) was purchased from Invitrogen. 0.025 mU of JAK3 was incubated with 2.5 μg polyGT substrate (Sigma catalog number P0275) in kinase reaction buffer (25 mM Tris pH 7.5, 0.5 mM EGTA, 0.5 mM Na3VO4, 5 mM b-glycerolphosphate, 0.01% Triton X-100, 1 μM non-radioactive ATP, 0.25 μCi 33P-gamma-ATP (GE Healthcare, catalog number AH9968) final concentrations) with or without 5 μL containing test compound or vehicle (DMSO, 1% final concentration), in a total volume of 25 μL, in a polypropylene 96-well plate (Greiner, V-bottom). After 105 min at 30° C., reactions were stopped by adding of 25 μL/well of 150 mM phosphoric acid. All of the terminated kinase reaction was transferred to prewashed (75 mM phosphoric acid) 96 well filter plates (Perkin Elmer catalog number 6005177) using a cell harvester (Perkin Elmer). Plates were washed 6 times with 300 μL per well of a 75 mM phosphoric acid solution and the bottom of the plates was sealed. 40 μL/well of Microscint-20 was added, the top of the plates was sealed and readout was performed using the Topcount (Perkin Elmer). Kinase activity was calculated by subtracting counts per minute (cpm) obtained in the presence of a positive control inhibitor (10 μM staurosporine) from cpm obtained in the presence of vehicle. The ability of a test compound to inhibit this activity was determined as: Percentage inhibition=((cpm determined for sample with test compound present−cpm determined for sample with positive control inhibitor) divided by (cpm determined in the presence of vehicle−cpm determined for sample with positive control inhibitor))*100%.
Dose dilution series were prepared for the compounds enabling the testing of dose-response effects in the JAK3 assay and the calculation of the IC50 for each compound. Each compound was routinely tested at concentration of 20 μM followed by a 1/3 serial dilution, 8 points (20 μM-6.67 μM-2.22 μM-740 nM-247 nM-82 nM-27 nM-9 nM) in a final concentration of 1% DMSO.

TNF release = assay: Septic shock model (LPS); format: in vivo, mice; conditions: for reduction in the TNF release: statistically significant
Protocol: Injection of lipopolysaccharide (LPS) induces a rapid release of soluble tumour necrosis factor (TNF-alpha) into the periphery. This model is used to analyse prospective blockers of TNF release in vivo.
Six BALB/cJ female mice (20 g) per group were treated at the intended dosing once, po. Thirty minutes later, LPS (15 μg/kg; E. Coli serotype 0111:B4) was injected ip. Ninety minutes later, mice were euthanized and blood was collected. Circulating TNF alpha levels were determined using commercially available ELISA kits. Dexamethasone (5 μg/kg) was used as a reference anti-inflammatory compound. Selected compounds are tested at one or multiple doses, e.g. 3 and/or 10 and/or 30 mg/kg, po.

[2] = Microsomal stability, rat; format: in vitro ADME; conditions: rat liver microsomes, 3 μM compound, 37° C.
Protocol: A 10 mM stock solution of compound in DMSO was diluted 1000 fold in a 182 mM phosphate buffer pH 7.4 in a 96 deep well plate (Greiner, Cat no. 780285) and pre-incubated at 37° C.
40 μL of deionised water was added to a well of a polypropylene Matrix 2D barcode labelled storage tube (Thermo Scientific) and pre-incubated at 37° C.
A Glucose-6-phosphate-dehydrogenase (G6PDH) working stock solution was prepared in 182 mM phosphate buffer pH7.4 and placed on ice before use. A co-factor containing MgCl2, glucose-6-phosphate and NADP+ was prepared in deionised water and placed on ice before use.
A final working solution containing liver microsomes (Xenotech) of a species of interest (human, mouse, rat, dog), previously described G6PDH and co-factors was prepared and this mix was incubated for no longer than 20 minutes at room temperature.
30 μL of the pre-heated compound dilution was added to 40 μL of pre-heated water in the Matrix tubes and 30 μL of the microsomal mix was added. Final reaction concentrations were 3 μM compound, 1 mg microsomes, 0.4 U/mL GDPDH, 3.3 mM MgCl2, 3.3 mM glucose-6-phosphate and 1.3 mM NADP+.
To measure percentage remaining of compound at time zero MeOH or ACN was added (1:1) to the well before adding the microsomal mix. The plates were sealed with Matrix Sepra Seals™ (Matrix, Cat. No. 4464) and shaken for a few seconds ensure complete mixing of all components.
The samples which were not stopped are incubated at 37° C., 300 rpm and after 1 hour of incubation the reaction was stopped with MeOH or ACN (1:1).
After stopping the reaction the samples were mixed and placed on ice for 30 min to precipitate the proteins. The plates were then centrifuged 30 min at 1200 rcf at 4° C. and the supernatant was transferred to a 96 v-bottom PP plate (Greiner, 651201) for analysis on LCMS.
These plates were sealed with sealing mats (MA96RD-04S) of www.kinesis.co.uk and samples were measured at room temperature on LCMS (ZQ 1525 from Waters) under optimized conditions using Quanoptimize to determine the appropriate mass of the parent molecule.
The samples were analyzed on LCMS with a flow rate of 1 mL/min. Solvent A was 15 mM ammonia and solvent B was methanol or acetonitrile, depending on the stop solution used. The samples were run under positive ion spray on an XBridge C18 […] (2.1×30 mm) column, from Waters.
Peak area from the parent compound at time 0 was considered to be 100% remaining. The percentage remaining after 1 hour incubation was calculated from time 0 and was calculated as the percentage remaining. The solubility of the compound in the final test concentration in buffer is inspected by microscope and results are reported.
The data on microsomal stability are expressed as a percentage of the total amount of compound remaining after 60 minutes.

T1 sequence (P52333 781-1124): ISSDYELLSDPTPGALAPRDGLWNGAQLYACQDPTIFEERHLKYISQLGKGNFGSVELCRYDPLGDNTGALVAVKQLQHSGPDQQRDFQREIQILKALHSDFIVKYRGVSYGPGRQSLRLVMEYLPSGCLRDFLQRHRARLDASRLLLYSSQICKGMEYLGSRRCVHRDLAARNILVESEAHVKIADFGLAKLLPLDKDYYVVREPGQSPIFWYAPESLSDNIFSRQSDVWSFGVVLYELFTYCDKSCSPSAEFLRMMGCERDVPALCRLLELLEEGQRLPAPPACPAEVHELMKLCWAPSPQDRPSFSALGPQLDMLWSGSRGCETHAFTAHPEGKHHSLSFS

For `O=C(Nc1nc2cccc(-c3ccc(OCc4cccnc4)cc3)n2n1)C1CC1` [Compound 36, N-(5-(4-(pyridin-3-ylmethoxy)phenyl)-[1,2,4]triazolo[1,5-a]pyridin-2-yl)cyclopropanecarboxamide], the IC50 [1] was 101 to 500 nM, the “activity in the septic shock model” value (TNF release; 30 mg/kg) was “active” and the “Microsomal stability Rat (%), compound remaining after 60 minutes” value [2] was 72.41%.
With `N#Cc1ccc(COc2ccc(-c3cccc4nc(NC(=O)C5CC5)nn34)cc2)cn1` [Compound 176, N-(5-(4-((6-cyanopyridin-3-yl)methoxy)phenyl)-[1,2,4]triazolo[1,5-a]pyridin-2-yl)cyclopropanecarboxamide] the IC50 [1] was 1 to 100 nM, the “reduction in the TNF release” value (TNF release; 3 mg/kg po) was greater than 50% and the “reduction in the TNF release” value (TNF release; 10 mg/kg po) was greater than 50%. The “Microsomal stability Rat (%), compound remaining after 60 minutes” value [2] was 90.21%.
For `CC(=O)Nc1ccc(COc2ccc(-c3cccc4nc(NC(=O)C5CC5)nn34)cc2)cc1` [Compound 92, N-(5-(4-(4-acetamidobenzyloxy)phenyl)-[1,2,4]triazolo[1,5-a]pyridin-2-yl)cyclopropanecarboxamide], the “Microsomal stability Rat (%), compound remaining after 60 minutes” value [2] was 23.6%.
In the case of `O=C(Nc1nc2cccc(-c3ccc(OCc4ccccn4)cc3)n2n1)C1CC1` [Compound 37, N-(5-(4-(pyridin-2-ylmethoxy)phenyl)-[1,2,4]triazolo[1,5-a]pyridin-2-yl)cyclopropanecarboxamide], the “activity in the septic shock model” value (TNF release; 3 mg/kg) is reported as “active” and the “Microsomal stability Rat (%), compound remaining after 60 minutes” value [2] is reported as 79.47%.
In the case of `O=C(Nc1nc2cccc(-c3ccc(NCc4ccccc4)cc3)n2n1)C1CC1` [Compound 72, N-(5-(4-(benzylamino)phenyl)-[1,2,4]triazolo[1,5-a]pyridin-2-yl)cyclopropanecarboxamide], the IC50 [1] is reported as greater than 501 nM and the “Microsomal stability Rat (%), compound remaining after 60 minutes” value [2] is reported as 2.2%.
For `O=C(Nc1nc2cccc(-c3ccc(OCc4ccccc4)cc3)n2n1)C1CC1` [Compound 12, N-(5-(4-(benzyloxy)phenyl)-[1,2,4]triazolo[1,5-a]pyridin-2-yl)cyclopropanecarboxamide], the IC50 [1] was 1 to 100 nM and the “Microsomal stability Rat (%), compound remaining after 60 minutes” value [2] was 94%.
For `O=C(Nc1nc2cccc(-c3ccc(OCc4ccccc4)nc3)n2n1)C1CC1` [Compound 57, Cyclopropanecarboxylic acid [5-(6-benzyloxy-pyridin-3-yl)-[1,2,4]triazolo[1,5-a]pyridin-2-yl]-amide], the IC50 [1] was greater than 501 nM and the “Microsomal stability Rat (%), compound remaining after 60 minutes” value [2] was 34.5%.
With `O=C(Nc1nc2cccc(-c3ccc(OCc4ccc(C(F)(F)F)nc4)cc3)n2n1)C1CC1` [Compound 78, N-(5-(4-((6-(trifluoromethyl)pyridin-3-yl)methoxy)phenyl)-[1,2,4]triazolo[1,5-a]pyridin-2-yl)cyclopropanecarboxamide] the “Microsomal stability Rat (%), compound remaining after 60 minutes” value [2] was 93.85%.

Reference: patent publication US8242274B2, “Triazolopyridine kinase inhibitors useful for the treatment of degenerative and inflammatory diseases” (Galapagos NV, priority 2008, dated 2012)
